Assay results taken from patent US3937838A, “Orally active bronchospasmolytic compounds and their preparation” (priority 1966, dated 1976).
Like-named read-outs stand apart in the source and are kept apart here.

What was measured:
[1] = system: histamine induced bronchoconstriction; test: Bronchospasmolytic effect in vivo, Konzett and Rossler (Example 5b); design: species or system guinea pig; settings: measured as described above
Experimental: Orciprenaline and terbutaline were also tested in vivo according to the method described by Konzett and Rossler [Arch. Exp. Path. Pharmak. 195 (1940) page 71]. In the method of Konzett and Rossler, the animal is ventilated with a constant volume of air. When a certain pressure has been reached in the lung, the volume of air which is in excess of the pulmonary capacity will escape through the valve. This surplus of air is recorded. The testing compounds in the Konzett and Rossler method, bronchial contraction is provoked by administration of histamine. The histamine reduced the capacity of the airways, and the measured overflow increases. In order to see to what extent a test compound counteracts the histamine-induced bronchospasm, the animal is first given an injection of the test compound which is followed 3 minutes later by exposure to histamine.

isolated rabbit heart = test: Effect on isolated heart, Langendorff preparation (Example 5d); settings: same procedure
Experimental: The effect of the compound of the present invention was also studied on isolated rabbit heart (Langendorff preparation) the method used as described by Anden et al. (Acta Pharmacol. et Toxicol., 21 (1964) page 247). In this procedure, the isolated heart is mounted in a Krebs solution and the test compound is injected into it. Measurements are continuously recorded of the rate and force of contraction.
The tests using epinephrine establish a standard of comparison to evaluate subsequent test compounds in the same preparation.

[2] = system: bronchospasm induced by histamine aerosol; test: Protecting effect against histamine aerosol in intact guinea pigs (Example 7c); format: in vivo, guinea pig; settings: Cavia porcellus, m ± s.e., read-out: ED50 (protecting 50 per cent of the animals for more than 4 minutes)
Experimental: The compounds KWD2109 and KWD2025 have been compared in preventing bronchospasm induced by histamine aerosol in guinea pigs.
The drug was injected intraperitoneally 15 minutes (Table 2) or administered orally 30 minutes (Table 3) before histamine treatment. The dose of the drugs protecting 50 per cent of the animals for more than 4 minutes is denoted "ED50". In untreated animals only 1-2 percent will withstand the histamine aerosol for more than 4 minutes.
To study the duration of the effect, 2 mg/kg was administered orally to intact guinea pigs at different time intervals before the histamine treatment. Two series each including eleven groups of six animals was studied. The groups were tested in histamine aerosol 10, 20, 30, 40, 50, 60, 120, 180, 240, 300 and 360 minutes after the administration of the compound. The per cent of animals in each group protected more than 4 minutes and more than 10 minutes was determined.

[3] = system: isolated guinea pig heart; test: Effect on isolated guinea pig heart, Langendorff (Example 7d); settings: KWD2025 given index 1.0
Experimental: The isolated guinea pig heart was perfused according to Langendorff. The method used is described by Anden et al. (Acta. Pharmacol. et Toxicol. 21, 247, 1964). Contractions in the heart were recorded by means of a force displacement transducer and aa Grass polygraph Model 7. Epinephrine was used as reference. KWD2109 and KWD2025 were tested on the same preparation. The comparisons of effects were based on dose for 50 percent increase in chronotropic effect and 10 percent increase in inotropic effect.

[4] = system: isolated guinea pig auricle; test: Dual bath preparation, effect on left auricle (Example 8a); settings: same bath
Experimental: The left auricle was dissected out and mounted together with spirally-cut trachea from the same animal in a 100 ml bath in Kreb's solution (37°C.) well aereated with a mixture of oxygen (95%) and carbon dioxide (5%). The auricle was electrically stimulated with square wave pulses from a Techtronic Stimulator (voltage 2-4; duration: 10 m sec; frequency 1 per second). This is, in general, the same procedure described above in Example 5c.
Using the dual bath preparation, tests were made of the effect on the trachea and auricle of KWD2025 (of the present invention) and of the known drugs KWD2109 and epinephrine. The drug to be tested was added to the bath in the predetermined amount and allowed to act upon the organs for 10 minutes.

[5] = Acute toxicity in mice (Example 9); settings: mouse, in vivo, iv, mice
guinea pig trachea = test: Bronchospasmolytic effect in vitro (Example 13); settings: for bronchospasmolytic effect x (-)epinephrine: based on ED50-values, weight basis, Table 7; for bronchospasmolytic effect in vitro relative to terbutaline: per se
Experimental: The trachea from a guinea pig was dissected out and spirally cut. It was mounted in a water-jacketed bath (37°C.) in Krebs solution and aerated with oxygen (95%) and carbon dioxide (5%). Pilocarpine (2 μg/ml) was added. The load was adjusted to about 2 g and relaxations in the trachea were recorded by means of a Grass force displacement transducer and a Grass polygraph model 5 (see Example 5 above). The cumulative method was used (-)-Epinephrine was used as reference. The comparisons presented in Table 7 are based on ED50 -values.

[6] = system: histamine-induced bronchospasm; test: Bronchospasmolytic effect in the anesthetized cat, Konzett & Rossler (Example 14); format: in vivo; settings: i.v.; based on ED50-values; weight basis; Table 8
Experimental: Bronchospasmolytic effect was studied according to the method of Konzett & Rossler (see Example 5b above). Bronchospasm was induced by i.v. injections of histamine into the left jugular vein. Overflow was recorded by means of a Grass volume transducer and a Grass polygraph model 5. Changes in arterial mean pressure and heart rate, were continuously recorded during the experiment. Terbutaline was used as reference in all experiments. The comparisons are based on ED50 -values.

[7] = system: bronchoconstriction by histamine aerosol; test: Protecting effect against histamine aerosol in guinea pigs (Example 15); format: in vivo, guinea pig; settings: for ED50: Cavia porcellus, read-out: ED50 (protecting 50 percent of the animals for more than 4 minutes)
Excerpt: Male guinea pigs (200--300 g) were used. Bronchoconstriction was produced by letting the animals inhale a histamine aerosol.

[8] = system: isolated guinea pig heart; test: Effect on isolated heart from guinea pig, Langendorff (Example 16); settings: for direct heart effect relative to terbutaline: per se
Experimental: The isolated guinea pig heart was perfused according to Langendorff. The method used is described by Anden et al. [Acta Pharmacol. et Toxicol. 21, 247, (1964)]. Contractions in the heart were recorded by a force displacement transducer and a Grass polygraph model 5. The recovery of the heart was tested with (-) epinephrine between every dose of the substance tested. Terbutaline was used as reference.

[9] = Toxicity study in mice (Example 18); format: in vivo; settings: mouse, in vivo, mice (NMRI, male), 24 hours, read-out: LD 50 + Standard error
Experimental: (§1) The toxicity was studied in mice (NMRI, male, 18-28 g) 24 hours after i.v. and oral administration. The animals were observed during five days. No further deaths occurred.

mice = test: Toxicity study in mice (Example 18); format: in vivo; settings: indicated by higher oral toxicity
Experimental: as §1

[10] = system: right auricle from the guinea pig; test: Dual preparation test in vitro, effect on auricle (Example 5c); settings: slow infusion; 0.375 μg/min where stated; FIGS. 2-4
Excerpt: (§2) [This procedure is more fully described below in Example 5 (b)].
(§3) FIG. 2 illustrates the effect of epinephrine (EPE) and terbutaline on spirally cut trachea and right auricle from the guinea pig. Both preparations are dissected out from the same animal and run under identical experimental conditions;
(§4) Both preparations are dissected out from the same animal, and run under identical experimental conditions;
(§5) Both preparations are dissected out from the same animal and run under identical experimental conditions;
(§6) The relation between the heart stimulatory effect and bronchodilator effect was studied in vitro on auricle-trachea-preparation from the guinea pig in order to compare the effect on the heart and the effect on the bronchial muscle under identical experimental conditions. Both spontaneously bearing auricle and spirally-cut trachea were placed in the same bath in Krebs solution. Both preparations were taken from the same animal.
(§7) The compound to be tested was slowly infused into the bathing solution and the tension was measured for each of the auricle and trachael preparations.
(§8) In carrying out this dual preparation test, epinephrine was used as a reference. […] Infusion of epinephrine was made over a period of ten minutes. After washing and recovery, the test solution was infused in the same manner and the effect of the test compound was compared with the effect of epinephrine.
Referring more specifically to FIG. 2, the upper portion of each chart thereof represents the tension continuously recorded of the auricle preparation (shaded area 1 for the effect of epinephrine on the auricle, ref. no. 2 for the effect of terbutaline infused at a rate of 0.2 μg/min on the auricle, and ref. no. 3 for the effect of terbutaline infused at a rate of 0.375μg/min on the auricle).

[11] = system: spirally cut trachea from the guinea pig; test: Dual preparation test in vitro, effect on trachea (Example 5c); settings: slow infusion; 0.375 μg/min where stated; FIGS. 2-4
Excerpt: as §2, §3, §4, §5, §6, §7, §8

[12] = system: arterial mean pressure, pulse pressure, heart rate, peripheral vascular resistance; test: Haemodynamic studies in anesthetized cats (Example 17); format: in vivo, cat
Experimental: The haemodynamic effects of KWD2058 and terbutaline were studied in anesthetized cats after i.v. injection in the left femoral vein. Three experiments were done. The effects on arterial mean pressure, pulse pressure (right carotid artery) and heart rate were recorded.
To study the effect of the compounds on the peripheral vascular resistance, constant flow was arranged in the right hind limb on two cats by means of a Sigma motor pump connected to arteria femoralis. Injections were made intra-arterially and variations in the peripheral resistance were recorded as pressure changes.

| SMILES | bronchospasmolytic effect x (-)epinephrine (guinea pig trachea) | bronchospasmolytic effect in vitro relative to terbutaline (guinea pig trachea) | bronchospasmolytic effect x terbutaline [6] | ED50 ([7]; ip, 0.25 h) | ED50 ([7]; po, 0.5 h) | effect on heart rate x terbutaline ([8]; Table 10) | direct heart effect relative to terbutaline [8] | LD50 at 24 h ([9]; iv) | LD50 at 24 h ([9]; po) | oral absorption in comparison with terbutaline (mice) | other results |
| --- | --- | --- | --- | --- | --- | --- | --- | --- | --- | --- | --- |
| Oc1cc(O)cc(C(O)CNC2CCC2)c1 (stereo not drawn) [KWD2025, 1-(3',5'-dihydroxyphenyl)-2-(cyclobutylamino)-ethanol] |  |  |  |  |  |  |  |  |  |  | bronchospasmolytic effect relative to epinephrine [1]: about 0.4 times; bronchospasmolytic effect relative to orciprenaline [1]: about 1.2 times; cardiac stimulatory effect relative to epinephrine (isolated rabbit heart): less than 0.1 times; ED50 ([2]; ip, 0.25 h, i.p., 15 minutes before histamine-aerosol): 0.6 ± 0.07 mg/kg; ED50 ([2]; po, 0.5 h, peroral, 30 minutes before histamine-aerosol): 1.7 ± 0.3 mg/kg; therapeutic index, bronchospasmolytic effect over effect on the heart (inotropic) [3]: 1.0; effect on force of contraction in auricle in concentrations relaxing the trachea [4]: relaxed the trachea without affecting the auricle; LD50 [5]: 54 mg/kg |
| CC(=O)Oc1cc(OC(C)=O)cc(C(O)CNC(C)(C)C)c1 (stereo not drawn) [KWD2037] | 0.7 | weaker bronchospasmolytic effect in vitro than terbutaline | 0.7 ± 0.1 | 0.7 mg/kg | 0.4 mg/kg | 0.05 ± 0.01 | much less direct heart effect | 112 ± 5 mg/kg | 2100 mg/kg | improved oral absorption in comparison with terbutaline | effect on force of contraction x terbutaline ([8]; Table 10): 0.03 ± 0.01 |
| NC[C@H](O)c1ccc(O)c(O)c1 [norepinephrine, reference compound] |  |  |  |  |  |  |  |  |  |  | effect on auricle (tension) [10]: strong effect on the heart muscle; effect on trachea (relaxation) [11]: without affecting the bronchial muscles |
| Br.CC(C)C(=O)Oc1cc(OC(=O)C(C)C)cc(C(O)CNC(C)(C)C)c1 (stereo not drawn) [KWD2058, 1-(3',5'-diisobutyryloxyphenyl)-2-(t-butylamino)-ethanol hydrobromide] | 0.6 ± 0.2 | weaker bronchospasmolytic effect in vitro than terbutaline | 1.0 ± 0.1 |  |  |  | much less direct heart effect | 52 ± 4 mg/kg | 2150 mg/kg | improved oral absorption in comparison with terbutaline | ED50 ([7]; 0.5 h, oral, 30 minutes before histamine): 0.15 mg/kg; ED50 ([7]; ip, 0.25 h, i.p., 15 minutes before histamine): 1 mg/kg; protecting effect relative to terbutaline ([7]; oral): 2.5 times; oral absorption in comparison with terbutaline ([7]; seen in oral ED50, Table 9): particularly good oral absorption in comparison with terbutaline; effect on heart rate ([8]; doses up to 100 μg): no effect; effect on arterial mean pressure, pulse pressure, heart rate and peripheral vascular resistance relative to terbutaline ([12]; cat, summary): about half; arterial mean pressure, x terbutaline ([12]; i.v., anesthetized cats): 0.4+0.1 × terbutaline; heart rate, x terbutaline ([12]; i.v., anesthetized cats): 0.4±0.1 × terbutaline; pulse rate, x terbutaline ([12]; i.v., anesthetized cats, pulse pressure in text): 0.4±0.1 × terbutaline; change in peripheral resistance, x terbutaline ([12]; intra-arterial, right hind limb, constant flow): 0.4±0.1 × terbutaline |
| CCC(=O)Oc1cc(OC(=O)CC)cc(C(O)CNC(C)(C)C)c1 (stereo not drawn) [KWD2057] | 0.4 | weaker bronchospasmolytic effect in vitro than terbutaline | 0.5 | 0.2 mg/kg | 1 mg/kg | 0.06 | much less direct heart effect | 70 ± 4 mg/kg | 2200 mg/kg | improved oral absorption in comparison with terbutaline |  |
